In paper PMC10382042, “Brevetoxin versus Brevenal Modulation of Human Nav1 Channels” (Marine Drugs, 2023):

Tests used:
[1] = tested on: human Nav1.2, Nav1.4, Nav1.5, Nav1.7; assay: in vitro; type: cell-based; details: human; all Nav subtypes, Ipeak and Ilate; read-out: pI/EC50, range over Nav currents
Protocol: (§1) Functional modulation of recombinant human voltage-gated sodium (Nav) channels exposed to marine PbTx-3 and brevenal was assessed by automated patch-clamp electrophysiology. Neuronal Nav1.2 (CNS) and Nav1.7 (PNS), in addition to muscle Nav1.4 (skeletal) and Nav1.5 (cardiac) sodium channels, were patch-clamped in mammalian cells. Whole-cell currents mediated by human Nav1.4 and Nav1.7 overexpressed in CHO-K1 cells, as well as human Nav1.2 and Nav1.5 overexpressed in HEK293 cells, were recorded at room temperature. Currents were elicited by 25 ms test pulses to −20 mV from a holding potential (Vh) of −120 mV, delivered for 5 min at 0.1 Hz, after each full-bath solution exchange to allow current amplitude and kinetics to reach a steady state.
(§2) Nav currents were evoked by a 25 ms test pulse to −20 mV (Vh = −120 mV; 0.1 Hz). Extracellular drug applications were performed by exchanging the whole bath with the test compounds diluted in extracellular solution to the required concentration during constant monitoring (25 ms, −20 mV, Vh −120 mV, 0.1 Hz). The control solution included 0.1% ethanol to account for non-specific vehicle effects. For concentration–response curves (CRCs), compounds at incrementally higher concentrations were applied to the extracellular bath solution and allowed to equilibrate for 5 min. The average current amplitude from the last five test pulses at each concentration was used for analysis.
(§3) APC data were analyzed using PatchMaster (Nanion) and Igor (WaveMetrics, Portland, OR, USA) software. Nav peak and late currents measured in the presence of increasing amounts of PbTx-3 and brevenal were divided by the current in control conditions (ICtr) to generate CRCs. […]

[2] = tested on: human Nav channels (Nav1.2, Nav1.4, Nav1.5, Nav1.7); assay: in vitro; type: cell-based
Protocol: as §1, §2, §3

Row | SMILES | EC50 [1] [µM] | fold enhancement of late currents mediated by Nav1.2, Nav1.4, and Nav1.5 [2] | orders of magnitude more potent than brevenal at modulating Nav currents [2]
1 | C=C/C=C\CC[C@H]1O[C@H]2CC[C@@]3(C)O[C@H]4[C@@H](O)C[C@@]5(C)O[C@@H](CC/C=C(C)/C(C)=C/C=O)[C@@H](C)C[C@H]5O[C@@H]4C[C@@H]3O[C@@H]2CC[C@@]1(C)O [Brevenal] | 0.01 to 10 | – | –
2 | C=C(CO)C[C@@H]1C[C@H](O)[C@]2(C)OC3CC4OC5C[C@]6(C)O[C@]7(C)CCC8OC9C[C@]%10(C)OC%11C(C)=CC(=O)OC%11CC%10OC9C[C@@H](C)C8OC7CC6O[C@@]5(C)C/C=C\C4OC3CC2O1 (stereo partly drawn) [PbTx-3, Brevetoxin PbTx-3] | – | 2–4 fold | 1–3 orders of magnitude
